Experimental data published in patent publication US9062078B2, “Substituted 7-azabicyles and their use as orexin receptor modulators” (priority 2013, dated 2015).
pKi: −log10 of the molar value. Like-named read-outs stand apart in the source and are kept apart here.

Key:
rat orexin 1 receptor = rat orexin 1 receptor (Rattus norvegicus, UniProt P56718); experiment: Rat orexin 1 receptor radioligand binding (competitive, [3H]-SB674042, HEK293 cell preparations)
human orexin 2 receptor = human orexin 2 receptor (Homo sapiens (Human), UniProt O43614); experiment: Human orexin 2 receptor radioligand binding (competitive, [3H]-EMPA, HEK293 cell preparations)
human orexin 1 receptor = human orexin 1 receptor (Homo sapiens (Human), UniProt O43613); experiment: Human orexin 1 receptor radioligand binding (competitive, [3H]-SB674042, CHO cell preparations)
[1] = rat orexin 1 receptor, [3H]-SB674042 competition binding, read-out: rOX1 Ki (nm)
[2] = human orexin 2 receptor, [3H]-EMPA competition binding, read-out: hOX2 Ki (nm)
[3] = human orexin 1 receptor, [3H]-SB674042 competition binding, read-out: hOX1 Ki (nm)

Sequence of human orexin 2 receptor (O43614 whole entry): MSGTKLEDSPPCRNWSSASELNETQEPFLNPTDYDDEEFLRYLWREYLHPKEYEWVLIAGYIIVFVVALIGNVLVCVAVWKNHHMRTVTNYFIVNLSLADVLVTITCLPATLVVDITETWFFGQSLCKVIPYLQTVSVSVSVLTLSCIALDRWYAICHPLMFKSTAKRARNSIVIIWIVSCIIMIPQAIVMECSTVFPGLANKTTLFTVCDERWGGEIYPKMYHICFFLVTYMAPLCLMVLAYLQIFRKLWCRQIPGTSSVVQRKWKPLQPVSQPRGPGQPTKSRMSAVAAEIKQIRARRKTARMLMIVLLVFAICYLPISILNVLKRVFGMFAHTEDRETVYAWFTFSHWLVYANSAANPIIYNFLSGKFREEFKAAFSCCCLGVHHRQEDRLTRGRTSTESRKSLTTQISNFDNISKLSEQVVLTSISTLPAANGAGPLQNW
Sequence of human orexin 1 receptor (O43613 whole entry): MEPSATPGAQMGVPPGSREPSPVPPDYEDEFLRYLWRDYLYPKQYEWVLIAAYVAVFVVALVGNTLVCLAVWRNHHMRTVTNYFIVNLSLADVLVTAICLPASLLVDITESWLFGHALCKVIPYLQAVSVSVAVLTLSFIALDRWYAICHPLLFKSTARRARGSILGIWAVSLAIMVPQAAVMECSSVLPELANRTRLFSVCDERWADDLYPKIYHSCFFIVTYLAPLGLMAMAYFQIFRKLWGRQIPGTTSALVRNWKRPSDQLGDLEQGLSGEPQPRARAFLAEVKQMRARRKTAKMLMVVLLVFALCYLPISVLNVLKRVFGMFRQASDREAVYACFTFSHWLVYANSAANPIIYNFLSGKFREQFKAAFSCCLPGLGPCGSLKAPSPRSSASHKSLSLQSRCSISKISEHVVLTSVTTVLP

SMILES	pKi (human orexin 2 receptor; hOX2 Ki (nm))	pKi (human orexin 1 receptor; hOX1 Ki (nm))	pKi (human orexin 2 receptor; [2])	pKi (human orexin 1 receptor; [3])	other results
Cc1ccc(-c2ncccn2)c(C(=O)N2C3CCC2C(COc2ccccn2)C3)n1 (racemic) [Example 2, (±)-(6-methyl-3-(pyrimidin-2-yl)pyridin-2-yl)(2-((pyridin-2-yloxy)methyl)-7-azabicyclo[2.2.1]heptan-7-yl)methanone]	6.30	7.64			pKi (rat orexin 1 receptor; rOX1 Ki (nm)): 7.51
Cc1ccc(-c2ncccn2)c(C(=O)N2C3CCC2C(COc2ccc(F)cn2)C3)c1 (racemic) [Example 33, (±)-(2-(((5-fluoropyridin-2-yl)oxy)methyl)-7-azabicyclo[2.2.1]heptan-7-yl)(5-methyl-2-(pyrimidin-2-yl)phenyl)methanone]			7.41	8.05	pKi (rat orexin 1 receptor; [1]): 7.82
O=C(c1c(F)cccc1-n1nccn1)N1C2CCC1C(COc1cnc3ccccc3n1)C2 (racemic) [Example 35, (±)-(2-fluoro-6-(2H-1,2,3-triazol-2-yl)phenyl)(2-((quinoxalin-2-yloxy)methyl)-7-azabicyclo[2.2.1]heptan-7-yl)methanone]			6.16	7.24	pKi (rat orexin 1 receptor; [1]): 7.16
Cc1ccc(-n2nccn2)c(C(=O)N2C3CCC2C(COc2ccc(Br)cn2)C3)n1 (racemic) [Example 49, (±)-(2-(((5-bromopyridin-2-yl)oxy)methyl)-7-azabicyclo[2.2.1]heptan-7-yl)(6-methyl-3-(2H-1,2,3-triazol-2-yl)pyridin-2-yl)methanone]		7.16	6.72		pKi (rat orexin 1 receptor; rOX1 Ki (nm)): 7.09
Cc1ccc(-n2nccn2)c(C(=O)N2C3CCC2C(COc2ncccc2C)C3)n1 (racemic) [Example 55, (±)-(6-methyl-3-(2H-1,2,3-triazol-2-yl)pyridin-2-yl)(2-(((3-methylpyridin-2-yl)oxy)methyl)-7-azabicyclo[2.2.1]heptan-7-yl)methanone]		6.82	6.69		pKi (rat orexin 1 receptor; rOX1 Ki (nm)): 6.92
Cc1ccc(-n2nccn2)c(C(=O)N2C3CCC2C(COc2cccnc2)C3)n1 (racemic) [Example 58, (±)-(6-methyl-3-(2H-1,2,3-triazol-2-yl)pyridin-2-yl)(2-((pyridin-3-yloxy)methyl)-7-azabicyclo[2.2.1]heptan-7-yl)methanone]		6.93	5.62		pKi (rat orexin 1 receptor; rOX1 Ki (nm)): 7.06
Cc1cccc(OCC2CC3CCC2N3C(=O)c2nc(C)ccc2-n2nccn2)n1 (racemic) [Example 62, (±)-(6-methyl-3-(2H-1,2,3-triazol-2-yl)pyridin-2-yl)(2-(((6-methylpyridin-2-yl)oxy)methyl)-7-azabicyclo[2.2.1]heptan-7-yl)methanone]	6.73			7.34	pKi (rat orexin 1 receptor; [1]): 7.13
Cc1ccc(-c2ncco2)c(C(=O)N2C3CCC2C(COc2ccc(F)cn2)C3)n1 (racemic) [Example 63, (±)-(2-(((5-fluoropyridin-2-yl)oxy)methyl)-7-azabicyclo[2.2.1]heptan-7-yl)(6-methyl-3-(oxazol-2-yl)pyridin-2-yl)methanone]			6.47	7.60	pKi (rat orexin 1 receptor; [1]): 7.60
CCOc1ncc2ccccc2c1C(=O)N1C2CCC1C(COc1ccccn1)C2 (racemic) [Example 83, (±)-(3-ethoxyisoquinolin-4-yl)(2-((pyridin-2-yloxy)methyl)-7-azabicyclo[2.2.1]heptan-7-yl)methanone]		7.92			pKi (rat orexin 1 receptor; rOX1 Ki (nm)): 7.77
CCOc1ccccc1C(=O)N1C2CCC1C(COc1ccc(F)cn1)C2 (racemic) [Example 165, (±)-(2-ethoxyphenyl)(2-(((5-fluoropyridin-2-yl)oxy)methyl)-7-azabicyclo[2.2.1]heptan-7-yl)methanone]		6.39	6.26		
O=C(c1cc(F)ccc1-n1nccn1)N1C2CCC1C(COc1cnc3ccccc3n1)C2 (racemic) [Example 166, (±)-(5-fluoro-2-(2H-1,2,3-triazol-2-yl)phenyl)(2-((quinoxalin-2-yloxy)methyl)-7-azabicyclo[2.2.1]heptan-7-yl)methanone]			5.94	6.97	
Cc1ccc(OCC2CC3CCC2N3C(=O)c2cc(C)ccc2-n2nccn2)nc1 (racemic) [Example 167, (±)-5-methyl-2-(2H-1,2,3-triazol-2-yl)phenyl)(2-(((5-methylpyridin-2-yl)oxy)methyl)-7-azabicyclo[2.2.1]heptan-7-yl)methanone]	7.85			8.05	
Cc1ccc(C(=O)N2C3CCC2C(COc2cnc4ccccc4n2)C3)c(-n2nccn2)n1 (racemic) [Example 168, (±)-(6-methyl-2-(2H-1,2,3-triazol-2-yl)pyridin-3-yl)(2-((quinoxalin-2-yloxy)methyl)-7-azabicyclo[2.2.1]heptan-7-yl)methanone]	5.14			5.64	
O=C(c1cc(F)ccc1-n1nccn1)N1C2CCC1C(CNc1ccccn1)C2 (racemic) [Example 169, (±)-(5-fluoro-2-(2H-1,2,3-triazol-2-yl)phenyl)(2-((pyridin-2-ylamino)methyl)-7-azabicyclo[2.2.1]heptan-7-yl)methanone]			5.60	5.05	
Cc1cc(C)nc(NCC2CC3CCC2N3C(=O)c2cc(F)ccc2-n2nccn2)n1 (racemic) [Example 170, (±)-(2-(((4,6-dimethylpyrimidin-2-yl)amino)methyl)-7-azabicyclo[2.2.1]heptan-7-yl)(5-fluoro-2-(2H-1,2,3-triazol-2-yl)phenyl)methanone]	6.29			5.71	
Cc1ccc(-n2nccn2)c(C(=O)N2C3CCC2C(COc2cc(C)nc(C(F)(F)F)n2)C3)c1 (racemic) [Example 180, (±)-(5-methyl-2-(2H-1,2,3-triazol-2-yl)phenyl)(2-(((6-methyl-2-(trifluoromethyl)pyrimidin-4-yl)oxy)methyl)-7-azabicyclo[2.2.1]heptan-7-yl)methanone]		7.48	7.49		
O=C(c1ccccc1-n1nccn1)N1C2CCC1C(Nc1cnc(C(F)(F)F)cn1)C2 (racemic) [Example 182, (±)-((2-(2H-1,2,3-triazol-2-yl)phenyl)(2-((5-(trifluoromethyl)pyrazin-2-yl)amino)-7-azabicyclo[2.2.1]heptan-7-yl)methanone]	5.96	7.42			
Cc1cc(C)nc(NC2CC3CCC2N3C(=O)c2cc(F)ccc2-n2nccn2)n1 (racemic) [Example 197, (±)-(2-((4,6-dimethylpyrimidin-2-yl)amino)-7-azabicyclo[2.2.1]heptan-7-yl)(5-fluoro-2-(2H-1,2,3-triazol-2-yl)phenyl)methanone]	6.06	5.05			
Cc1cc(C)nc(NC2CC3CCC2N3C(=O)c2c(F)cccc2-n2nccn2)n1 (racemic) [Example 198, (±)-(2-((4,6-dimethylpyrimidin-2-yl)amino)-7-azabicyclo[2.2.1]heptan-7-yl)(2-fluoro-6-(2H-1,2,3-triazol-2-yl)phenyl)methanone]		5.85	6.15		
Cc1cc(C)nc(NC2CC3CCC2N3C(=O)c2ccc(F)cc2-n2nccn2)n1 (racemic) [Example 199, (±)-(2-((4,6-dimethylpyrimidin-2-yl)amino)-7-azabicyclo[2.2.1]heptan-7-yl)(4-fluoro-2-(2H-1,2,3-triazol-2-yl)phenyl)methanone]			6.26	5.79	
O=C(c1ccccc1-c1cccs1)N1[C@@H]2CC[C@H]1[C@H](COc1ccc(F)cn1)C2 (single isomer, unassigned) [Example 12A, ((1S*,2R*,4R*)-2-(((5-fluoropyridin-2-yl)oxy)methyl)-7-azabicyclo[2.2.1]heptan-7-yl)(2-(thiophen-2-yl)phenyl)methanone]	6.47	6.75			
O=C(c1ccccc1-c1cccs1)N1[C@H]2CC[C@@H]1[C@@H](COc1ccc(F)cn1)C2 (single isomer, unassigned) [Example 12B, ((1R*,2S*,4S*)-2-(((5-fluoropyridin-2-yl)oxy)methyl)-7-azabicyclo[2.2.1]heptan-7-yl)(2-(thiophen-2-yl)phenyl)methanone]	8.30	8.52			
O=C(c1ccccc1-n1nccn1)N1C2CCC1C(Nc1cnc(C(F)(F)F)cn1)C2 (single isomer, unassigned) [Example 183b]	6.15	7.55			
CCOc1ncc2ccccc2c1C(=O)N1[C@@H]2CC[C@H]1[C@H](COc1ccccn1)C2 [Example 164, (3-ethoxyisoquinolin-4-yl)((1S,2R,4R)-2-((pyridin-2-yloxy)methyl)-7-azabicyclo[2.2.1]heptan-7-yl)methanone]					pKi (rat orexin 1 receptor; read-out: rOX1 Ki (nm)): 8.05; pKi (human orexin 1 receptor; read-out: hOX1 Ki (nm)): 8.15
O=C(c1ccccc1-n1nccn1)N1[C@@H]2CC[C@H]1[C@H](Nc1cnc(C(F)(F)F)cn1)C2 [Example 181, (2-(2H-1,2,3-triazol-2-yl)phenyl)((1S,2R,4R)-2-((5-(trifluoromethyl)pyrazin-2-yl)amino)-7-azabicyclo[2.2.1]heptan-7-yl)methanone]	6.15	7.55			
Cc1noc(-c2c(F)cccc2C(=O)N2[C@@H]3CC[C@H]2[C@H](Nc2cnc(C(F)(F)F)cn2)C3)n1 [Example 254, (3-fluoro-2-(3-methyl-1,2,4-oxadiazol-5-yl)phenyl)((1S,2R,4R)-2-((5-(trifluoromethyl)pyrazin-2-yl)amino)-7-azabicyclo[2.2.1]heptan-7-yl)methanone]			6.42		pKi (human orexin 1 receptor; read-out: hOX1 Ki (nm)): 7.70
O=C(c1ccc(F)cc1-n1nccn1)N1[C@@H]2CC[C@H]1[C@H](Nc1cnc(C(F)(F)F)cn1)C2 [Example 257, (4-fluoro-2-(2H-1,2,3-triazol-2-yl)phenyl)((1S,2R,4R)-2-((5-(trifluoromethyl)pyrazin-2-yl)amino)-7-azabicyclo[2.2.1]heptan-7-yl)methanone]			5.49	6.99	
